From ChEMBL document CHEMBL3714710, “Diaminopyrimidines as P2X3 and P2X2/3 modulators” (2010)
Calls of active or inactive are those of the source. The rule behind the calls is not given here.

target: T1, P2X purinoceptor 3 (Rattus norvegicus) (UniProt P49654); experiment: Antagonist activity against rat P2X3 receptor expressed in CHOK1 cells assessed as inhibition of alpha,beta-meATP-induced calcium response incubated for 20 mins by Fluo-3AM dye based FLIPR assay; type: functional, cell-based; details: CHO-K1
T1 sequence (whole entry): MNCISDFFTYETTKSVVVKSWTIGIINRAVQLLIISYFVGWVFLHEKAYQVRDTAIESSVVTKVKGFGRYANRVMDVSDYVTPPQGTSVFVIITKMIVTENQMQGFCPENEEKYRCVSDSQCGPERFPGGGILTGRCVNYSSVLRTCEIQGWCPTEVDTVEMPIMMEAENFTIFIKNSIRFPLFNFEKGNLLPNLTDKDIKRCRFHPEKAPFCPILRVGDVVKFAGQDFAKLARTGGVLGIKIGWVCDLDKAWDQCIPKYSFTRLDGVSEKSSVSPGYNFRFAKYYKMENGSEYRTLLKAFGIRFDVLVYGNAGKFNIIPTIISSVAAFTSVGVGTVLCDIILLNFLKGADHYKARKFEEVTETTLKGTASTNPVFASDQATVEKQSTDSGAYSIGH

inhibition, active:
Nc1ncc(Oc2cc3ccccc3cc2I)c(N)n1
Cc1ccc2nc(C(C)C)c(Oc3cnc(N)nc3N)cc2c1
Cc1cccc2cc(Oc3cnc(N)nc3N)c(C(C)C)nc12
Cc1cccc2cc(Oc3cnc(N)nc3N)c(C(C)C)cc12
Cc1nccc2cc(Oc3cnc(N)nc3N)c(C(C)C)cc12
CC(C)c1cc2cccnc2cc1Oc1cnc(N)nc1N
CC(C)c1nc2ccccc2cc1Oc1cnc(N)nc1N
Cc1cccc2cc(C(C)C)c(Oc3cnc(N)nc3N)cc12
CC(C)c1cc2ncccc2cc1Oc1cnc(NC(CO)CO)nc1N
COc1ccc2cc(Oc3cnc(N)nc3N)c(C(C)C)cc2c1
